Measured values as given in patent US8987264B2, “1,3,5-triazine derivatives of spiro bicyclic oxalamide-compounds for treatment of hepatitis C” (priority 2012, dated 2015).

What follows are compounds tested on HCV pseudoparticles, genotype 1a (H77C) E1 and E2 envelope glycoproteins (assay: HCV pseudoparticle infection assay (luciferase reporter, Huh7 cells)). Settings: Hepatitis C virus, Huh-7, 48 h, read-out: EC50 (nM) 1a (H77C), HCV pseudoparticles genotype 1a (H77C), Huh7 cells, luciferase 2 days after infection; class symbol.
Type: cell-based

Q: With NC(=O)C(=O)N1CCC2(CCN(C(=O)c3ccc(Nc4nc(NC5(c6ccc(Cl)cc6)CC5)nc(OCC(F)(F)F)n4)cc3)C2)C1 (stereo not drawn) [Compound 1001] as the compound, how does the EC50 read?
A: 0.01 to 10 nM

Q: How did the EC50 turn out when O=C(Nc1cccc(F)c1)C(=O)N1CCC2(CCN(C(=O)c3ccc(Nc4nc(NC5(c6ccc(Cl)cc6)CC5)nc(OCC(F)(F)F)n4)cc3)C2)C1 (stereo not drawn) [Compound 1002] was run?
A: 0.01 to 10 nM

Q: Which EC50 does the source give for O=C(Nc1ccc(F)cc1)C(=O)N1CCC2(CCN(C(=O)c3ccc(Nc4nc(NC5(c6ccc(Cl)cc6)CC5)nc(OCC(F)(F)F)n4)cc3)C2)C1 (stereo not drawn) [Compound 1003] here?
A: 0.01 to 10 nM

Q: With Cc1cc(NC(=O)C(=O)N2CCC3(CCN(C(=O)c4ccc(Nc5nc(NC6(c7ccc(Cl)cc7)CC6)nc(OCC(F)(F)F)n5)cc4)C3)C2)no1 (stereo not drawn) [Compound 1004] as the compound, how does the EC50 read?
A: 0.01 to 10 nM

Q: O=C(Nc1ccccc1)C(=O)N1CCC2(CCN(C(=O)c3ccc(Nc4nc(NC5(c6ccc(Cl)cc6)CC5)nc(OCC(F)(F)F)n4)cc3)C2)C1 (stereo not drawn) [Compound 1005] was tested. Which EC50 did it give?
A: 0.01 to 10 nM

Q: O=C(NCc1ccc(F)cc1)C(=O)N1CCC2(CCN(C(=O)c3ccc(Nc4nc(NC5(c6ccc(Cl)cc6)CC5)nc(OCC(F)(F)F)n4)cc3)C2)C1 (stereo not drawn) [Compound 1006] was tested. Which EC50 did it give?
A: 0.01 to 10 nM

Q: Cc1ccc(NC(=O)C(=O)N2CCC3(CCN(C(=O)c4ccc(Nc5nc(NC6(c7ccc(Cl)cc7)CC6)nc(OCC(F)(F)F)n5)cc4)C3)C2)cc1 (stereo not drawn) [Compound 1007] was tested. Which EC50 did it give?
A: 0.01 to 10 nM

Q: O=C(Nc1ccc(F)cc1F)C(=O)N1CCC2(CCN(C(=O)c3ccc(Nc4nc(NC5(c6ccc(Cl)cc6)CC5)nc(OCC(F)(F)F)n4)cc3)C2)C1 (stereo not drawn) [Compound 1008] was tested. Which EC50 did it give?
A: 0.01 to 10 nM

Q: Which EC50 does the source give for O=C(Nc1cc(F)cc(F)c1)C(=O)N1CCC2(CCN(C(=O)c3ccc(Nc4nc(NC5(c6ccc(Cl)cc6)CC5)nc(OCC(F)(F)F)n4)cc3)C2)C1 (stereo not drawn) [Compound 1009] here?
A: 0.01 to 10 nM

Q: Which EC50 does the source give for O=C(NC1CCCCC1)C(=O)N1CCC2(CCN(C(=O)c3ccc(Nc4nc(NC5(c6ccc(Cl)cc6)CC5)nc(OCC(F)(F)F)n4)cc3)C2)C1 (stereo not drawn) [Compound 1010] here?
A: 0.01 to 10 nM

Q: Which EC50 does the source give for O=C(C(=O)N1CCC2(CCN(C(=O)c3ccc(Nc4nc(NC5(c6ccc(Cl)cc6)CC5)nc(OCC(F)(F)F)n4)cc3)C2)C1)N1CCCCC1 (stereo not drawn) [Compound 1011] here?
A: 0.01 to 10 nM

Q: Which EC50 does the source give for O=C(Nc1nccs1)C(=O)N1CCC2(CCN(C(=O)c3ccc(Nc4nc(NC5(c6ccc(Cl)cc6)CC5)nc(OCC(F)(F)F)n4)cc3)C2)C1 (stereo not drawn) [Compound 1012] here?
A: 0.01 to 10 nM

Q: Which EC50 does the source give for O=C(C(=O)N1CCC2(CCN(C(=O)c3ccc(Nc4nc(NC5(c6ccc(Cl)cc6)CC5)nc(OCC(F)(F)F)n4)cc3)C2)C1)N1CCc2ccccc2C1 (stereo not drawn) [Compound 1013] here?
A: 0.01 to 10 nM

Q: With CC(C)CNC(=O)C(=O)N1CCC2(CCN(C(=O)c3ccc(Nc4nc(NC5(c6ccc(Cl)cc6)CC5)nc(OCC(F)(F)F)n4)cc3)C2)C1 (stereo not drawn) [Compound 1014] as the compound, how does the EC50 read?
A: 0.01 to 10 nM

Q: How did the EC50 turn out when Cc1nnc(NC(=O)C(=O)N2CCC3(CCN(C(=O)c4ccc(Nc5nc(NC6(c7ccc(Cl)cc7)CC6)nc(OCC(F)(F)F)n5)cc4)C3)C2)s1 (stereo not drawn) [Compound 1015] was run?
A: 0.01 to 10 nM

Same assay, conditions: Hepatitis C virus, Huh-7, 48 h, read-out: EC50 (nM) 1a (H77C), HCV pseudoparticles genotype 1a (H77C), Huh7 cells, luciferase 2 days after infection; numeric value

Q: With NC(=O)C(=O)N1CCC2(CCN(C(=O)c3ccc(Nc4nc(NC5(c6ccc(Cl)cc6)CC5)nc(OCC(F)(F)F)n4)cc3)C2)C1 (stereo not drawn) [Compound 1001] as the compound, how does the EC50 read?
A: 1.64 nM

Q: How did the EC50 turn out when Cc1ccc(NC(=O)C(=O)N2CCC3(CCN(C(=O)c4ccc(Nc5nc(NC6(c7ccc(Cl)cc7)CC6)nc(OCC(F)(F)F)n5)cc4)C3)C2)cc1 (stereo not drawn) [Compound 1007] was run?
A: 0.255 nM

Q: For O=C(C(=O)N1CCC2(CCN(C(=O)c3ccc(Nc4nc(NC5(c6ccc(Cl)cc6)CC5)nc(OCC(F)(F)F)n4)cc3)C2)C1)N1CCc2ccccc2C1 (stereo not drawn) [Compound 1013], which EC50 is on record?
A: 4.86 nM
